Experimental data from patent US20240318220A1, “IONIC LIQUIDS BASED ON UNNATURAL AMINO ACIDS, PREPARATION METHODS THEREOF, AND APPLICATIONS THEREOF” (PEKING UNIVERSITY, priority 2022, published 2024).

Assays:
[1] = Serum concentration curve of NAEK after oral administration; type: in vivo; conditions: mice, 30 mg NAEK or equimolar amount
Protocol: FIG. 5B. […] The NAEK content in the serum reached a maximum of about 1.6 μg/mL two hours after oral administration, as evidenced by the curve in the NAEK-aqueous solution group. Subsequently, 8 hours after oral administration, the NAEK content in the serum diminished to nearly zero, indicating rapid metabolism of NAEK, which could be completed in 6 hours. […] Furthermore, only 22 hours after oral administration, the serum NAEK content approached zero, indicating complete metabolism within approximately […].
Two experimental groups were set, with 12 mice in each group. In one group, each mouse was orally administered with 30 mg NAEK aqueous solution, and in the other group, each mouse was orally administered with an equimolar amount of Ch-NAEK. Blood was collected from the orbital plexus of the mice at 1 h, 2 h, 4 h, 6 h, 8 h, 9 h, 10 h, 14 h, 19 h, and 22 h time points to plot the NAEK serum concentration in mice as function of time (FIG. 5B).

mdx mice = experiment: Full-length expression of Dystrophin in muscle tissue by immunoblotting; type: in vivo; conditions: mdx mice with AAV-MmpylRS-tRNA, oral, 2 weeks
Protocol: FIG. 12. Flow Diagram of Treating DMD Disease in Mdx Mouse Model Using Ionic Liquid Ch-NAEK and the Codon Expansion System Experimental exploration was conducted to investigate the treatment of DMD disease. Following successful synthesis, identification and activity evaluation of the three ionic liquids Ch-NAEK, Ch-pAcF and Ch-Anap, Ch-NAEK was selected as the preferred ionic liquid for subsequent disease treatment. mdx mice with DMD disease were initially intramuscularly injected with AAV-MmpylRS-tRNA virus and subsequently orally administered with Ch-NAEK (at a mass volume fraction of 70%) daily for four weeks. Muscle tissue samples were collected in the first, second, and fourth weeks for detection of Dystrophin protein restoration. HE pathological staining of mouse muscle tissue, determination of serum CK kinase content, and testing of mouse grip strength were performed.
mdx mice, a classic mouse model for DMD (Duchenne Muscular Dystrophy) research, have a nonsense mutation of TAA at the […] of Dystrophin exon, resulting in the failure of normal expression of Dystrophin, and thus leading to symptoms of muscle atrophy in muscle and heart tissues in mice. mdx mice injected with AAV-MmpylRS-tRNA virus were divided into two experimental groups. […] The therapeutic effects were evaluated at the time points of 1, 2, and 4 weeks after administration. […]

[N-]=[N+]=NCCOC(=O)NCCCC[C@H](N)C(=O)O [NAEK-aqueous solution]
maximum NAEK content in serum [1]: about 1.6 μg/mL | time after oral administration at which serum NAEK content approached zero [1]: 8 h | time for complete metabolism of NAEK [1]: 6 h | time of maximum serum NAEK content after oral administration [1]: two | restoration of full-length disease protein (Dystrophin) expression, in words (mdx mice): very low
